{"source": "patent US11155821B2", "about": "“Compositions and methods for tagging ribonucleic acids” (The Regents of the University of Colorado, a body corporate, priority 2018, dated 2021)", "key": {"[1]": {"target": "Cbl riboswitch RNA variant A (wild type env8)", "assay": "Isothermal titration calorimetry (ITC), aptamer A", "assay_type": "binding", "conditions": "ITC at 25° C., RNA buffer; mean of 3 independent experiments +/- STDEV", "description": "(§1) ITC experiments were performed using protocols previously established and described [reference 30, 31]. Briefly, the RNA was dialyzed overnight at 4° C. into RNA buffer (100 mM KCl, 10 mM NaCl, 1 mM MgCl2, 50 mM HEPES, pH 8.0) using 6-8000 Dalton molecular weight cutoff dialysis tubing (Spectra/Por). The dialysis buffer was used to dissolve Cbl and Cbl-5xPEG-ATTO590, and to dilute RNA To the desired concentration. Titrations were performed at 25° C. using a MicroCal ITC 200 microcalorimeter (GE Healthcare) and data were fit using the Origin software suite as previously described [reference 61]."}, "[2]": {"target": "truncated Cbl riboswitch RNA variant AT", "assay": "Isothermal titration calorimetry (ITC), aptamer AT", "assay_type": "binding", "conditions": "ITC at 25° C., RNA buffer; mean of 3 independent experiments +/- STDEV", "description": "as §1"}, "[3]": {"target": "Cbl riboswitch RNA variant D", "assay": "Isothermal titration calorimetry (ITC), aptamer D", "assay_type": "binding", "conditions": "ITC at 25° C., RNA buffer; mean of 3 independent experiments +/- STDEV", "description": "as §1"}, "[4]": {"test_system": "RNA AT,MUT (four point mutations in the Cbl-binding site)", "assay": "In vitro fluorescence turn-on, plate reader, aptamer AT,MUT", "assay_type": "biochemical", "conditions": "probe 0.25 or 0.5 μM, RNA at least 5 μM", "description": "(§2) The concentration of Cbl-fluorophore probes, free fluorophores and free Cbl was determined using extinction coefficients listed in Table 1B. In vitro experiments were conducted in RNA buffer (100 mM KCl, 10 mM NaCl, 1 mM MgCl2, 50 mM HEPES, pH 8.0). For the Cbl-fluorophore probes, the extinction coefficient of the fluorophores was used to determine the concentration. […] The fluorescence intensity of each probe was measured in the presence or absence of RNA in RNA buffer as technical triplicates in a Tecan Safire-II fluorescence plate. […] Samples were incubated for at least 20 minutes (min) at room temperature in the dark to allow for Cbl-binding of the RNA prior to data collection. The excitation wavelength for each probe is listed in Table 1B and the emission spectrum was collected in 1 nm increments for the range listed in Table 1B. Each emission spectrum was buffer subtracted, integrated and normalized to the signal of the free fluorophore at the same concentration. Resulting % fluorescence measurements were reproducible for measurements on different days."}, "[5]": {"test_system": "RNA AT", "assay": "In vitro fluorescence turn-on, plate reader, aptamer AT", "assay_type": "biochemical", "conditions": "probe 0.25 or 0.5 μM, RNA at least 5 μM", "description": "as §2"}, "[6]": {"test_system": "Broccoli", "assay": "Photobleaching of RNA/probe complexes, constant illumination, Broccoli", "assay_type": "physicochemical", "conditions": "bound to Broccoli, within a second", "description": "For photobleaching experiments, indicated probes and RNA (Table 10) were mixed before about 3 to 4× of microscope immersion oil (Olympus immersion oil type-F) was added and the solution was emulsified to generate droplets. Samples were prepared in RNA buffer for Cbl-fluorophore samples (100 mM KCl, 10 mM NaCl, 1 mM MgCl2, 50 mM HEPES, pH 8.0) and in Broccoli buffer (40 mM HEPES pH 7.4, 100 mM KCl, 1 mM MgCl2) for the DFHBI-1T/Broccoli sample. The droplets were sandwiched between a glass slide and a coverslip. The sample was placed on the sample stage of a Nikon Ti-E HCA widefield fluorescence microscope with the coverslip facing a 20× objective lens. Photostability was assessed in part by fixing the excitation rate, i.e. the number of absorbed excitation photons were the same for Cbl-fluorophore/RNA samples and the DFHBI-1T/Broccoli sample. The high irradiance for the DFHBI-1T Broccoli sample is a result of its low extinction coefficient. Images were acquired every 50 ms for DFHBI-1T/Broccoli and every 250 ms for others for 3 seconds, then every second for 47 seconds or longer, and the exposure time of each image was 15 ms for DFHBI-1T/Broccoli and 40 ms for others. A total of 6 to 15 droplets were analyzed for each sample."}, "[7]": {"test_system": "ACTB-(2xdBroccoli) mRNA", "assay": "Stress granule (SG) assay, live U2-OS Halo-G3BP1 cells, Broccoli tag", "assay_type": "cell-based, Homo sapiens", "conditions": "arsenite", "description": "U2-OS cells stably producing GFP-G3BP1 or genomically producing Halo-G3BP1 were seeded at 0.25×10^6 cells in imaging dishes. One day after seeding, cells were chemically transfected with typically 2-μg plasmid DNA (1 μg of the ACTB plasmid fused with an RNA tag of interest mixed with 1 μg of the transfection marker pNLS-TagBFP (in pcDNA)) using the TransIT transfection system following manufacturer recommendations (Mirus). On the next day, cells were stained and bead loaded with the Cbl-fluorophore probe as described above. The media that was added after bead loading contained 0.5 mM sodium arsenite and cells were incubated at 37° C./5% CO 2 for 30-45 min to induce stress granules. Cells were rinsed once in PBS and Fluorobrite media (Gibco), supplemented with 0.5 mM sodium arsenite, was added for live cell imaging. For correlative live/fixed imaging where cells were first imaged live, followed by fixation and FISH/immunofluorescence imaging of the same cells, the following modifications were made to the protocol above. Instead of home-made imaging dishes, gridded imaging dishes (MatTek) were used. Dishes were coated with 1 μg/mL fibronectin (Sigma) for 4 hours and fibronectin was rinsed once with full media before cells were seeded. Because plasmid ACTB-(AT) 4x was used, a higher concentration of Cbl-5xPEG-ATTO590 was bead loaded (3 μL of 50 μM probe).\nFor live imaging of SGs tagged with 2xdBroccoli in U2-OS cells, the pinhole was 67.7 μm and the laser settings were as follows. For the DAPI channel, the laser was set at 5.0 (HV=110), for the GFP channel the laser was set at 1.0 (HV=110), for the TRITC channel the laser was set at 1.0 (HV=40). For live imaging of SGs tagged with MS2 stem-loop repeats in U2-OS cells, the pinhole was 67.7 μm and the laser settings were as follows. For the DAPI channel, the laser was set at 5.0 (HV=110), for the GFP channel the laser was adjusted for optimal contrast without detector saturation (approximately 1.0-2.5) (HV approximately 60-100), for the TRITC channel the laser was set at 0.9 (HV=40)."}, "[8]": {"test_system": "SM-KDM5B translation reporter tagged with 12 copies of Riboglow", "assay": "Translation assay, live U2-OS cells", "assay_type": "cell-based", "description": "U2-OS cells seeded on home-made imaging dishes as described above were bead loaded with a mix of 1 μg plasmid DNA encoding for the SM-KDM5B translation reporter, 3 μL of a 5 μM stock of the Cbl-fluorophore probe Cbl-4xGly-ATTO 590 and 1 μL of Alexa488-labeled Fab to bind N-terminal FLAG tags in the reporter. After 6-8 hours, cells were washed 3 times with PBS, and medium was replaced with FluoroBrite medium (Gibco). Imaging was performed under HILO conditions [reference 49] at 37° C. and 5% CO2 using an Andor Ixon Ultra DU897U-C50 EMCCD camera. When indicated, puromycin was added during the image acquisition at a final concentration of 50 μg/mL."}}}
{"compound": "C/C1=C2/N[C@H]([C@H](CC(N)=O)[C@@]2(C)CCC(=O)NC[C@@H](C)OP(=O)(O)O[C@H]2[C@@H](O)[C@@H](n3cnc4cc(C)c(C)cc43)O[C@@H]2CO)[C@]2(C)N=C(/C(C)=C3N=C(/C=C4N=C1[C@@H](CCC(N)=O)C\\4(C)C)[C@@H](CCC(N)=O)[C@]\\3(C)CC(N)=O)[C@@H](CCC(N)=O)[C@]2(C)CC(N)=O.[Co]", "note": "[Cbl, cobalamin]", "values": [{"measurement": "Kd", "setting": "[1]", "value": "37 ± 1", "unit": "nM"}, {"measurement": "Kd", "setting": "[2]", "value": 290, "unit": "nM"}, {"measurement": "Kd", "setting": "[3]", "value": "2.2 ± 1.6", "unit": "nM"}]}
{"compound": "C/C1=C2/[N-][C@H]([C@H](CC(N)=O)[C@@]2(C)CCC(=O)NC[C@@H](C)OP(=O)([O-])O[C@H]2[C@@H](O)[C@@H](n3cnc4cc(C)c(C)cc43)O[C@@H]2Cn2cc(CNC(=O)c3ccc4c(c3)C3(OC4=O)c4ccc(O)cc4Oc4cc(O)ccc43)nn2)[C@]2(C)N=C(/C(C)=C3N=C(/C=C4N=C1[C@@H](CCC(N)=O)C\\4(C)C)[C@@H](CCC(N)=O)[C@]\\3(C)CC(N)=O)[C@@H](CCC(N)=O)[C@]2(C)CC(N)=O.[C-]#N.[Co+3]", "note": "[Cbl-FAM]", "values": [{"measurement": "Fold fluorescence turn-on", "setting": "[4]", "value": 0.5, "unit": "x"}, {"measurement": "Fold fluorescence turn-on", "setting": "[5]", "value": 2.5, "unit": "x"}]}
{"compound": "CC1=N/C(=C\\c2cc(F)c(O)c(F)c2)C(=O)N1CC(F)(F)F", "note": "[DFHBI-1T]", "values": [{"measurement": "fluorescence remaining after photobleaching", "setting": "[6]", "value": "< 20", "unit": "%"}, {"measurement": "cells with Halo-G3BP1 labeled SGs where no corresponding SGs in the green Broccoli channel were detectable", "setting": "[7]", "value": 90, "unit": "%"}, {"measurement": "total SGs detected in the green Broccoli channel", "setting": "[7]", "value": 4, "unit": "%"}, {"measurement": "transfected cells in which at least one SG was detected in the green channel", "setting": "[7]", "value": 10, "unit": "%"}]}
{"compound": "COc1ccc(C[C@H](N)C(=O)N[C@H]2[C@@H](O)[C@H](n3cnc4c(N(C)C)ncnc43)O[C@@H]2CO)cc1", "note": "[Puromycin]", "values": [{"measurement": "protein signal at translation sites", "setting": "[8]; Puromycin added to cells with co-moving translation spots", "value": "rapid disappearance of the protein signal"}, {"measurement": "mRNA spots colocalized with protein signal", "setting": "[8]; after Puromycin treatment, 50 μg/mL", "value": "30±12", "unit": "%"}]}
